{"source": "patent US20260151367A1", "about": "“KIT TO PROMOTE DEVELOPMENTAL MYELINATION” (SOCIÉTÉ DES PRODUITS NESTLÉ S.A., priority 2022, published 2026)", "molecules": {"B1": {"name": "α-lactalbumin: whey protein of 123 amino acids and 4 disulfide bridges, molecular weight 14.2K Daltons (protein, UniProt P00711 20-142, looked up)", "Alpha-lactalbumin": "EQLTKCEVFRELKDLKGYGGVSLPEWVCTTFHTSGYDTQAIVQNNDSTEYGLFQINNKIWCKDDQNPHSSNICNISCDKFLDDDLTDDIMCVKKILDKVGINYWLAHKALCSEKLDQWLCEKL"}}, "key": {"[1]": {"system": "myelin water fraction (MWF)", "test": "Linear model of myelin versus nutrient intake, all ages included", "assay_type": "in vivo, human", "conditions": "for association with myelin levels in age-adjusted models across age windows: all ages, linear model; for nutIntake*logAge estimate / nutIntake estimate: linear model across ages, Box Cox transformed MWF; for nutIntake*logAge estimate: coefficient of the intake x log age interaction term; for nutIntake estimate: coefficient of the nutrient intake term", "method": "The inventors have investigated the developmental dynamics of nutrient-myelin interactions from infancy to early childhood, using myelin imaging as a marker for brain maturation. Brain neuroimaging and infant nutritional intake information were analyzed from 293 children from a longitudinal cohort study in the US. A sliding window approach was used to investigate the relationship between the nutrient intake and brain region myelination over a continuous set of age windows.\nFor inclusion in the analysis of the present study, 293 children between 6 months and 60 months of age were selected who met the following criteria: 1. Singleton full-term (>37 weeks) pregnancy; 2. Uncomplicated pregnancy (i.e., no reports of pre-eclampsia, gestational hypertension or gestation diabetes mellitus, GDM); 3. No reports of abnormalities on fetal ultrasound; 4. Infant 5 minute APGAR scores ≥8; 5. Infant birth weight greater than 1500 g; 6. No reported history of neurological trauma in the child; 7. No reported sibling or parental psychiatric history, including autism; and 8. No reports of major depressive disorder requiring medication in the mother during pregnancy or in the 6 months prior to becoming pregnant. In addition, children had to have a successful MRI scan and time-matched nutrition intake information for at least one 24-hour period within a week of the MRI.\nFrom the acquired mcDESPOT data, the myelin water fraction (MWF) was calculated using a processing pipeline that includes linear alignment of the SPGR, IR-SPGR, and bSSFP images to account for subtle intra-scan head movement, non-parenchyma voxel removal, and correction of flip angle errors and off-resonance inhomogeneities using DESPOT1-HIFI and DESPOT2-FM. A 3-pool tissue model was fit to the multi-angle SPGR and bSSFP data to estimate the MWF, a surrogate and non-invasive measure of myelin content. The MWF images (maps) were then non-linearly aligned to a common analysis space in approximate MNI space using a previously described multi-step approach that first aligns the subject's high flip angle T1 weighted SPGR image to one of 14 age-specific templates and then to an overall study-specific template using non-linear 3D deformation, ANTS. The calculated transformation matrices are then applied to the quantitative MWF maps.\nNutrient intake data was collected through the Automated Self-Administered 24-hour dietary assessment tool (ASA-24). The average daily nutrient intake per scan age was calculated, resulting in 293 observations with 88 nutrients. Values for amino acids and phospholipids, including sphingomyelin, were retrieved from the relevant United States Department of Agriculture (USDA) databases. The USDA choline database contains the values of free choline, glycerophosphocholine, phosphocholine, phosphatidylcholine and sphingomyelin for about 630 foods. […] The oligosaccharides 3′SL and 6′SL are only found in milk products, values of 114 and 23 mg/100 g were used for their respective concentrations in cow's milk. For the estimation of oligofructose, the inventors based their calculations on Moshfegh et al. J. Nutr. 1999; 129(7 Suppl): 1407s-11s. We then mapped the foods reported in ASA-24 to the corresponding items in the USDA database and calculated the daily totals.\n(§1) A linear model, like, was fitted to the dataset, all ages included, for each nutrient. Linear models with significant and positive coefficients for the nutrient intake terms were considered as indicative of a linear positive correlation with myelin. The myelin water fraction was Box Cox transformed to make it more symmetric. In addition, to account for possibly non-linear associations and for correlations between the nutrients, we performed a regression model using a random forest and used a feature selection algorithm for finding all relevant variables."}, "[2]": {"system": "myelin water fraction (MWF)", "test": "Random forest regression with feature selection for nutrients across ages", "assay_type": "in vivo, human", "conditions": "listed in order of average importance after log Age", "text": "as §1\nFIG. 2 compares the values of the transformed MWF with the values predicted by the random forest, on a test set."}, "[3]": {"system": "myelination", "conditions": "potentially via a reduction in sialylated binding targets for the myelin associated glycoprotein; cited from earlier work"}}}
{"molecule": "CC(=O)N[C@H]1[C@H]([C@H](O)[C@H](O)CO)O[C@@](O[C@H]2[C@@H](O)[C@@H](CO)O[C@@H](O[C@H]3[C@H](O)[C@@H](O)C(O)O[C@@H]3CO)[C@@H]2O)(C(=O)O)C[C@@H]1O", "note": "(stereo partly shown) [3′SL, 3′-sialyllactose]", "values": [{"measurement": "association with myelin levels in age-adjusted models across age windows", "setting": "[1]", "result": "linked with higher myelin levels"}, {"measurement": "nutIntake*logAge estimate", "setting": "[1]", "result": 0.000}, {"measurement": "nutIntake estimate", "setting": "[1]", "result": 0.002}, {"measurement": "variables selected by the random forest model, sorted by average importance", "setting": "[2]", "result": "selected by the random forest model"}]}
{"molecule": "CC(=O)N[C@H]1[C@H]([C@H](O)[C@H](O)CO)O[C@@](OC[C@H]2O[C@@H](O[C@H]3[C@H](O)[C@@H](O)[C@H](O)O[C@@H]3CO)[C@H](O)[C@@H](O)[C@H]2O)(C(=O)O)C[C@@H]1O", "note": "[6′SL, 6′-sialyllactose]", "values": [{"measurement": "association with myelin levels in age-adjusted models across age windows", "setting": "[1]", "result": "linked with higher myelin levels"}, {"measurement": "nutIntake*logAge estimate", "setting": "[1]", "result": "−0.001"}, {"measurement": "nutIntake estimate", "setting": "[1]", "result": 0.009}, {"measurement": "impact on myelination in a preclinical study", "setting": "[3]", "result": "impact myelination"}]}
{"molecule": "[Ca+2]", "note": "[Calcium]", "values": [{"measurement": "variables selected by the random forest model, sorted by average importance", "setting": "[2]", "result": "selected by the random forest model"}]}
{"molecule": "CC1=C(/C=C/C(C)=C/C=C/C(C)=C/C=C/C=C(C)/C=C/C=C(C)/C=C/C2=C(C)CCCC2(C)C)C(C)(C)CCC1", "note": "[Carotene, beta]", "values": [{"measurement": "variables selected by the random forest model, sorted by average importance", "setting": "[2]", "result": "selected by the random forest model"}]}
{"molecule": "CC[C@H](C)[C@H](N)C(=O)O", "note": "[Isoleucine]", "values": [{"measurement": "variables selected by the random forest model, sorted by average importance", "setting": "[2]", "result": "selected by the random forest model"}]}
{"molecule": "NCCCC[C@H](N)C(=O)O", "note": "[Lysine]", "values": [{"measurement": "association with myelin levels in age-adjusted models across age windows", "setting": "[1]", "result": "linked with higher myelin levels"}, {"measurement": "nutIntake*logAge estimate", "setting": "[1]", "result": "−0.005"}, {"measurement": "nutIntake estimate", "setting": "[1]", "result": 0.033}]}
{"molecule": "CSCC[C@H](N)C(=O)O", "note": "[Methionine]", "values": [{"measurement": "variables selected by the random forest model, sorted by average importance", "setting": "[2]", "result": "selected by the random forest model"}]}
{"molecule": "[P]", "note": "[Phosphorus]", "values": [{"measurement": "variables selected by the random forest model, sorted by average importance", "setting": "[2]", "result": "selected by the random forest model"}]}
{"molecule": "N[C@@H](CO)C(=O)O", "note": "[Serine]", "values": [{"measurement": "variables selected by the random forest model, sorted by average importance", "setting": "[2]", "result": "selected by the random forest model"}]}
{"molecule": "Octadecadienoic acid [Octadecadienoic (Linoleic, 18:2)]", "values": [{"measurement": "variables selected by the random forest model, sorted by average importance", "setting": "[2]", "result": "selected by the random forest model"}]}
{"molecule": "Phosphatidylcholine", "values": [{"measurement": "variables selected by the random forest model, sorted by average importance", "setting": "[2]", "result": "selected by the random forest model"}]}
{"molecule": "Phosphatidylinositol", "values": [{"measurement": "variables selected by the random forest model, sorted by average importance", "setting": "[2]", "result": "selected by the random forest model"}]}
{"molecule": "Phosphatidylserine", "values": [{"measurement": "variables selected by the random forest model, sorted by average importance", "setting": "[2]", "result": "selected by the random forest model"}]}
{"molecule": "Sphingomyelin", "values": [{"measurement": "variables selected by the random forest model, sorted by average importance", "setting": "[2]", "result": "selected by the random forest model"}]}
{"molecule": "B1", "values": [{"measurement": "association with myelin levels in age-adjusted models across age windows", "setting": "[1]", "result": "linked with higher myelin levels"}, {"measurement": "nutIntake*logAge estimate", "setting": "[1]", "result": "−0.014"}, {"measurement": "nutIntake estimate", "setting": "[1]", "result": 0.097}]}
